Positions of bridges follow the written chain, without caps; N, C: chain ends. Non-standard residues stand in square brackets, D forms with d. Residues, ends and D or L forms follow the SMILES beside them. NMePhe(4-NO2) = CN[C@@H](Cc1ccc([N+](=O)[O-])cc1)C(=O)O; Phe(4-NO2) = N[C@@H](Cc1ccc([N+](=O)[O-])cc1)C(=O)O; 2Nal = N[C@@H](Cc1ccc2ccccc2c1)C(=O)O; d2Nal = N[C@H](Cc1ccc2ccccc2c1)C(=O)O; Abu = CC[C@H](N)C(=O)O
Tests used:
[1] = molecular target: T1, rat somatostatin receptor subtype 2 (SSTR2) (Rattus norvegicus, UniProt P30680); experiment: Yeast assay, somatostatin agonist activity (growth zone of modified yeast cells on histidine-free agar); assay type: cell-based; settings: rating on a scale of 1-5 from zone of growing cells; S. Cerevisiae LY364
T1 construct: expressed in transfected cells; host or cells: Saccharomyces cerevisiae LY364
Protocol: In this evaluation, yeast cells which have been specifically modified to functionally express rat somatostatin receptor subtype 2 (SSTR2) on their cell surfaces are used. S. Cerevisiae LY364 cells are plated in a standard synthetic agar medium which lacks histidine. In the absence of a somatostatin receptor agonist, the auxotrophic (his3) cells are unable to grow. In the presence of somatostatin, or a somatostatin agonist, the expression of an enzyme (His3p: imidazole-glycerol phosphate dehydratase) which is essential for histidine biosynthesis is induced. The cells become competent to produce histidine, resulting in a zone of growing cells around the applied test compound. The zone is measured and the test compound is given an agonist rating on a scale of 1-5 wherein 1 is minimum agonist activity and 5 is maximum agonist activity.
SCD-ura-trp: • 1) To 500 mL water add: • 1.7 g YNB without amino acids and (NH4)2SO4 • 5.0 g (NH4)2SO4 • 0.7 g CSM-ura-trp • 2) To additional 500 mL water add: 20 g Dextrose • 3) Autoclave separately. Mix.
SCL-ura-trp: • 1) To 500 mL water add: • 1.7 g YNB without amino acids and (NH4)2SO4 • 5.0 g (NH4)2SO4 • 0.7 g CSM-ura-trp • 2) To additional 500 mL water add: 30 mL Lactic Acid • 3) Autoclave separately. Mix.
SCG-ura-trp: • 1) To 500 mL water add: • 1.7 g YNB without amino acids and (NH4)2SO4 • 5.0 g (NH4)2SO4 • 0.7 g CSM-ura-trp • 2) To additional 500 mL water add: 30 g D-Galactose • 3) Autoclave separately. Mix.
SCG-ura-trp-his agar medium, pH 6.8: • 1) To 500 mL water add: • 1.7 g YNB without amino acids and (NH4)2SO4 • 5.0 g (NH4)2SO4 • 0.7 g CSM-ura-trp-his • Stirring Bar • 2) Adjust pH to 6.8-6.9 by dropwise addition of conc. NH4OH • 3) To additional 500 mL water add: 30 g D-Galactose, 20 g Agar • 4) Autoclave separately. • 5) Stir to mix thoroughly. • 6) Equilibrate temperature to 55°C. YNB without amino acids and (NH4)2SO4, CSM-ura-trp, and CSM-ura-trp-his are manufactured by Bio101. Ammonium sulfate ((NH4)2SO4), Dextrose (D-glucose), D-Galactose, and Lactic Acid are manufactured by Sigma.
(§1) • 1) Inoculate 2 mL SCD-ura-trp liquid medium in Falcon 2051 tube with a single colony taken from a plate containing LY364 (MATa ura3-52 leu2 his3 trp1 lys2 ade2 far1:: LYS2 fus1:: FUS1-HIS3 gpal::hisG sst2::ADE2 bearing the SSTR2 expression plasmid, pJH2, and the G protein expression plasmid, pLP82)cells. • 2) Incubate overnight in a roller drum at 30°C.
(§2) Day 2. • 1) Harvest the cells by centrifugation (3 krpm, 5 min, room temp). • 2) Re-suspend with 5 mL of sterile water. • 3) Harvest again by centrifugation. • 4) Re-suspend in 5 mL SCL-ura-trp liquid medium. • 5) Incubate for 6 hours in a roller drum at 30°C. • 6) Harvest the cells again by centrifugation. • 7) Re-suspend in 5 mL SCG-ura-trp liquid medium. • 8) Incubate overnight in a roller drum at 30°C.
(§3) Day 3. • 1) Autoclave SCG-ura-trp-his pH 6.8 agar medium. • 2) Cool to 55°C in water bath. • 3) Add 1 mL of LY364 culture to 1 liter of agar medium. • 4) Stir vigorously for 1 min. • 5) Pour 150 mL each into five 500 cm^2 plates. • 6) Allow to cool on level surface. • 7) Apply test compound.
(§4) On day 3, add 5µL 1 mg/mL S-14 to each plate. Day 5. Begin checking plates for growth around applied compounds. Day 7. Growth in response to somatostatin should be readily observable. Rate extent of growth or inhibition of growth according to rating scale described hereinabove.

[2] = molecular target: T1, rat somatostatin receptor subtype 2 (SSTR2); experiment: Yeast assay, somatostatin antagonist activity (zone of no growth in presence of S-14); assay type: cell-based; set-up: key: 1 is minimum antagonist activity; 5 is maximum antagonist activity; -: When no activity is observed, the result is indicated by a dash; settings: rating on a scale of 1-5 from zone of no growth; 5µL of 1 mg/mL S-14 added to each plate; S. Cerevisiae LY364
Protocol: To evaluate the somatostatin antagonist activity of a test compound, the above procedure is followed except on day 3, 5µL of 1 mg/mL of somatostatin, S-14, is added to each plate, before applying the test compound. If the test compound is an antagonist of somatostatin, then a zone of no growth will appear within the cell growth zone. This zone of no growth is measured and the test compound is given an antagonist rating on a scale of 1-5 wherein 1 is minimum antagonist activity and 5 is maximum antagonist activity.
The results are shown in Table I. When no activity is observed, the result is indicated by a dash.
as §1, §2, §3, §4

T1 sequence (P30680 whole entry): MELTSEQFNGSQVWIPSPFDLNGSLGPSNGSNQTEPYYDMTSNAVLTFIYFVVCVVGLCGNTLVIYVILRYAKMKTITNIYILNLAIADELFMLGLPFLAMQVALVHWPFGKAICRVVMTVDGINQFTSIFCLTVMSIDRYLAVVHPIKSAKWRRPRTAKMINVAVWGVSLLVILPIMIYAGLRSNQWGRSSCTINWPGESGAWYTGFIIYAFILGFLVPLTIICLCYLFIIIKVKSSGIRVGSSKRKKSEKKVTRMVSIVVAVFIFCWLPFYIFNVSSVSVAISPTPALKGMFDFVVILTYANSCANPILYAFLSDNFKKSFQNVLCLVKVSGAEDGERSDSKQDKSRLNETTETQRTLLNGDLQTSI

Row | Compound | Yeast Assay Agonist [1] | Yeast Assay Antagonist [2]
1 | C[C@@H](O)[C@@H]1NC(=O)[C@H](CCCCN)NC(=O)[C@@H](Cc2c[nH]c3ccccc23)NC(=O)[C@H](Cc2ccc(O)cc2)NC(=O)[C@H](NC(=O)[C@@H](N)Cc2ccc([N+](=O)[O-])cc2)CSSC[C@@H](C(=O)N[C@H](Cc2ccc(O)cc2)C(N)=O)NC1=O | - | 4
2 | CC(C)[C@@H]1NC(=O)[C@H](CCCCN)NC(=O)[C@@H](Cc2c[nH]c3ccccc23)NC(=O)[C@H](Cc2ccc(O)cc2)NC(=O)[C@H](NC(=O)[C@@H](N)Cc2ccc([N+](=O)[O-])cc2)CSSC[C@@H](C(=O)N[C@@H](Cc2ccc(O)cc2)C(N)=O)NC1=O (H-[Phe(4-NO2)][dC]Y[dW]KVCY-NH2; disulfide 2-7 (inferred)) | - | 5
3 | CC(C)[C@@H]1NC(=O)[C@H](CCCCN)NC(=O)[C@@H](Cc2c[nH]c3ccccc23)NC(=O)[C@H](Cc2ccc(O)cc2)NC(=O)[C@H](NC(=O)[C@@H](N)Cc2ccc([N+](=O)[O-])cc2)CSSC[C@@H](C(=O)N[C@@H](Cc2ccc3ccccc3c2)C(N)=O)NC1=O (H-[Phe(4-NO2)][dC]Y[dW]KVC[2Nal]-NH2; disulfide 2-7 (inferred)) | - | 2
4 | C[C@@H](O)[C@@H]1NC(=O)[C@H](CCCCN)NC(=O)[C@@H](Cc2c[nH]c3ccccc23)NC(=O)[C@H](Cc2ccc(O)cc2)NC(=O)[C@H](NC(=O)[C@@H](N)Cc2ccc([N+](=O)[O-])cc2)CSSC[C@@H](C(=O)N[C@@H](Cc2ccc(O)cc2)C(N)=O)NC1=O | - | 5
5 | CC[C@@H]1NC(=O)[C@H](CCCCN)NC(=O)[C@@H](Cc2c[nH]c3ccccc23)NC(=O)[C@H](Cc2ccc(O)cc2)NC(=O)[C@H](NC(=O)[C@@H](N)Cc2ccc([N+](=O)[O-])cc2)CSSC[C@@H](C(=O)N[C@@H](Cc2ccc(O)cc2)C(N)=O)NC1=O (H-[Phe(4-NO2)][dC]Y[dW]K[Abu]CY-NH2; disulfide 2-7 (inferred)) | - | 3
6 | CN[C@@H](Cc1ccc([N+](=O)[O-])cc1)C(=O)N[C@@H]1CSSC[C@@H](C(=O)N[C@@H](Cc2ccc(O)cc2)C(N)=O)NC(=O)[C@H](C(C)C)NC(=O)[C@H](CCCCN)NC(=O)[C@@H](Cc2c[nH]c3ccccc23)NC(=O)[C@H](Cc2ccc(O)cc2)NC1=O (H-[NMePhe(4-NO2)][dC]Y[dW]KVCY-NH2; disulfide 2-7 (inferred)) | - | 5

The remaining lines, values ahead:

Row | Yeast Assay Agonist [1] | Yeast Assay Antagonist [2] | Compound
7 | - | 2 | CC(C)[C@@H]1NC(=O)[C@H](CCCCN)NC(=O)[C@@H](Cc2c[nH]c3ccccc23)NC(=O)[C@H](Cc2ccc(O)cc2)NC(=O)[C@H](NC(=O)[C@H](N)Cc2ccc3ccccc3c2)CSSC[C@@H](C(=O)N[C@@H](Cc2ccc(O)cc2)C(N)=O)NC1=O (H-[d2Nal][dC]Y[dW]KVCY-NH2; disulfide 2-7)
8 | - | 1 | CC(=O)N[C@@H](Cc1ccc2ccccc2c1)C(=O)N[C@@H]1CSSC[C@@H](C(=O)N[C@@H](Cc2ccc(O)cc2)C(N)=O)NC(=O)[C@H]([C@@H](C)O)NC(=O)[C@H](CCCCN)NC(=O)[C@@H](Cc2c[nH]c3ccccc23)NC(=O)[C@H](Cc2ccc(O)cc2)NC1=O (Ac-[2Nal][dC]Y[dW]KTCY-NH2; disulfide 2-7 (inferred))
9 | - | 3 | CC(C)[C@@H]1NC(=O)[C@H](CCCCN)NC(=O)[C@@H](Cc2c[nH]c3ccccc23)NC(=O)[C@H](Cc2ccc(O)cc2)NC(=O)[C@H](NC(=O)[C@@H](N)Cc2ccc3ccccc3c2)CSSC[C@@H](C(=O)N[C@@H](Cc2ccc(O)cc2)C(N)=O)NC1=O (H-[2Nal][dC]Y[dW]KVCY-NH2; disulfide 2-7; N-terminus assumed)
10 | - | 4 | CC(=O)N[C@@H](Cc1ccc([N+](=O)[O-])cc1)C(=O)N[C@@H]1CSSC[C@@H](C(=O)N[C@H](Cc2ccc(O)cc2)C(N)=O)NC(=O)[C@H]([C@@H](C)O)NC(=O)[C@H](CCCCN)NC(=O)[C@@H](Cc2c[nH]c3ccccc23)NC(=O)[C@H](Cc2ccc(O)cc2)NC1=O

Source: patent publication EP0791603A2, “Pure somatostatin antagonist and methods of use thereof” (American Cyanamid Company, priority 1996, dated 1997)
